According to ChEMBL document CHEMBL1150860, “Cox-2 inhibitory effects of naturally occurring and modified fatty acids” (J Nat Prod, 2001):

How the values were obtained:
[1] = biological target: T1, Prostaglandin G/H synthase 2 (Ovis aries, UniProt P79208); assay: Inhibition of sheep COX2-mediated prostaglandin biosynthesis using [1-14C]arachidonic acid
T1 sequence (P79208 whole entry): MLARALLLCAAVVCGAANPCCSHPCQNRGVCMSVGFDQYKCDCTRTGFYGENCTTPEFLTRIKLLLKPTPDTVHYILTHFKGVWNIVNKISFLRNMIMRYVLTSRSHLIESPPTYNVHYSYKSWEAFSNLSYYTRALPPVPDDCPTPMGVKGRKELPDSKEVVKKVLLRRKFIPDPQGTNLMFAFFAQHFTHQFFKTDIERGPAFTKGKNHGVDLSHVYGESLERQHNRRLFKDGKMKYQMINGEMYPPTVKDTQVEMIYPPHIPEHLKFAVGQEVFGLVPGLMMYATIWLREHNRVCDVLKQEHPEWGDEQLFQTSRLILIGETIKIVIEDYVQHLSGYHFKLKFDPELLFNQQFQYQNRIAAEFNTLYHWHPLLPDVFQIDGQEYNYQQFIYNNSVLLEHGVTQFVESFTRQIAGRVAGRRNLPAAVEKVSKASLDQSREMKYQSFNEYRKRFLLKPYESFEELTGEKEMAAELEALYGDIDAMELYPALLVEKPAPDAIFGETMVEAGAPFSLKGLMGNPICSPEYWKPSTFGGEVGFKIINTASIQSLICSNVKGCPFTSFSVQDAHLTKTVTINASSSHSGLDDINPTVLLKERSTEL

[2] = biological target: T2, Prostaglandin G/H synthase 1 (Bos taurus, UniProt O62664); assay: Inhibition of bovine COX1-mediated prostaglandin biosynthesis using [1-14C]arachidonic acid
T2 sequence (O62664 whole entry): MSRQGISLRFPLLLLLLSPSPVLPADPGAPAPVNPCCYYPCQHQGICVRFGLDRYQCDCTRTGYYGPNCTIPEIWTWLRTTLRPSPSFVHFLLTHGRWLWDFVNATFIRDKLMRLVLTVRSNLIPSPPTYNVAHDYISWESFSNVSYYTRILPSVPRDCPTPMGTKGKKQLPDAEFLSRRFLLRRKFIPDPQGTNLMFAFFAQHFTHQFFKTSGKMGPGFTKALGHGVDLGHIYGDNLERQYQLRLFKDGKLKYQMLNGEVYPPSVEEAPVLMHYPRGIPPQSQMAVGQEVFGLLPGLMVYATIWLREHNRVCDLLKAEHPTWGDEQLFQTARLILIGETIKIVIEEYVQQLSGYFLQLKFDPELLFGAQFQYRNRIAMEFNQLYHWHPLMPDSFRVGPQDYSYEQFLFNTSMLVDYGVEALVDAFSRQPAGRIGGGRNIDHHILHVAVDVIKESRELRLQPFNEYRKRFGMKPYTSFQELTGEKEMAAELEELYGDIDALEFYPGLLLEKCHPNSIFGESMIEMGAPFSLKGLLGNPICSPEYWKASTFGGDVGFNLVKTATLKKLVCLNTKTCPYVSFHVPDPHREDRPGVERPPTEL

[3] = Selectivity ratio for IC50 for sheep COX2 to IC50 for […]

| Structure (SMILES) | IC50 [1] [µM] | IC50 [2] [µM] | Ratio IC50 [3] |
| --- | --- | --- | --- |
| CCCCCCCCCCCCCCCCCC(=O)O [STEARIC ACID] | > 500 | > 500 |  |
| CCCCCCCCCCCCCCC(=O)O [PENTADECANOIC ACID] | > 500 | > 500 |  |
| CC/C=C\C/C=C\C/C=C\C/C=C\C/C=C\CCCC(=O)O [ICOSAPENT] | 7.1 | 13 | 0.5 |
| CC/C=C\C/C=C\C/C=C\C/C=C\CC/C=C/COCC(=O)O | 180 | 50 | 3.6 |
| CC/C=C\C/C=C\C/C=C\C/C=C\CCSCC(=O)O | 160 | 84 | 1.9 |
| CC/C=C\C/C=C\C/C=C\CC/C=C/COCC(=O)O | > 500 | > 500 |  |
| CCCCCCCCCCCCCCCC(=O)O [PALMITIC ACID] | > 500 | > 500 |  |

Next, values leading:

| IC50 [1] [µM] | IC50 [2] [µM] | Ratio IC50 [3] | Structure (SMILES) |
| --- | --- | --- | --- |
| 9.8 | 15 | 0.7 | CC/C=C\C/C=C\C/C=C\C/C=C\C/C=C\C/C=C\CCC(=O)O [DOCONEXENT] |
| > 500 | > 500 |  | CCCCCCCC/C=C\CCCCCCCC(=O)O [OLEIC ACID] |
| 94 | 170 | 0.6 | CCCCC/C=C\C/C=C\CCCCCCCC(=O)O [LINOLEIC ACID] |
| > 500 | > 500 |  | CCCCCCCCCCCCCC(=O)O [MYRISTIC ACID] |
| 3.9 | 26 | 0.2 | CC/C=C\C/C=C\C/C=C\C/C=C\CCSCCCC(=O)O |
| 12 | 93 | 0.1 | CC/C=C\C/C=C\C/C=C\CCCCCCCC(=O)O [LINOLENIC ACID] |
| 120 | 81 | 1.4 | CC/C=C\C/C=C\C/C=C\CC/C=C/CSCCCC(=O)O |
| > 500 | > 500 |  | CC/C=C\C/C=C\C/C=C\C/C=C\CCOCC(=O)O |
